# Measured values reported in PMC10726357, “New Genetically Engineered Derivatives of Antibacterial Darobactins Underpin Their Potential for Antibiotic Development” (Journal of Medicinal Chemistry, 2023).
# Where no end group is shown, it is not given here.
# Key:
# E. coli ATCC25922 = type: cell-based, Escherichia coli; conditions: ATCC25922
# Protocol: (§1) The antibacterial activity of novel darobactins was determined by the evaluation of the minimum inhibitory concentration (MIC) as previously described for crude extracts and for pure darobactin analogues.[12]
# A. baumannii DSM-30008 = type: cell-based, Acinetobacter baumannii; conditions: DSM-30008
# Protocol: as §1
# [1] = target: T1, EcBamA (E. coli BamA barrel domain) (Escherichia coli, UniProt P0A940, C690S/C700S); experiment: Microscale thermophoresis (MST) KD determination; type: binding
# T1 construct: The E. coli BamA barrel domain (BamA-β) (residues 421–810, C690S, C700S); made in house
# Protocol: As an alternative to the previously published methods using isothermal titration calorimetry (ITC), we established a KD determination assay using microscale thermophoresis (MST) to enable higher throughput.
# Microscale thermophoresis (MST) (serial no. 201709-BR-N024, Monolith NT.115 Micro Scale Thermophoresis, NanoTemper Technologies GmbH) was performed according to the standard protocol from the manufacturer NanoTemper Technologies GmbH using a Monolith His-Tag Labeling Kit RED-tris-NTA second-generation kit. The buffer used was HEPES (50 mM), pH 7.6, MgCl2 (5 mM), and Tween (0.05%). […] A 1:1 dilution of the ligand over 16 samples was performed using a stock of ligand (in water) diluted in HEPES buffer. Nonhydrophobic capillary tubes were used. A pretest to check for the labeling and compound fluorescence was performed for every sample followed by a binding affinity (KD) determination. Each sample was measured after 15 min of incubation at RT and analyzed in MO Control version 1.6.
# K. pneumoniae DSM-30104 = type: cell-based, Klebsiella pneumoniae; conditions: DSM-30104
# Protocol: as §1
# P. aeruginosa PA01 [2] = type: cell-based, Pseudomonas aeruginosa
# Protocol: as §1
# [3] = system: Klebsiella pneumoniae DSM-30104; experiment: Antibacterial activity screening of darobactin-containing crude extracts; type: cell-based; design: key: two-fold serial dilution from 1:15 (A) (concentration factor: 6.67×); low activity A B C D E F G H high activity; low activity A B C D E F G H high activity; low activity A B C D E F G H high activity; low activity A B C D E F G H high activity; low activity A B C D E F G H high activity; low activity A B C D E F G H high activity; to 1:3,840 (H) (concentration factor: 0.05×); conditions: derivative-containing crude extract, two-fold serial dilution
# Protocol: (§2) The extracts of production clones for all derivatives were prepared and tested for their antibacterial activity against E. coli ATCC 25922, P. aeruginosa PA01, K. pneumoniae DSM-30104, and A. baumannii DSM-30008.
# as §1
# [4] = system: Escherichia coli ATCC 25922; experiment: as above; type: cell-based; design: key: two-fold serial dilution from 1:15 (A) (concentration factor: 6.67×); low activity A B C D E F G H high activity; low activity A B C D E F G H high activity; low activity A B C D E F G H high activity; low activity A B C D E F G H high activity; low activity A B C D E F G H high activity; low activity A B C D E F G H high activity; to 1:3,840 (H) (concentration factor: 0.05×); conditions: derivative-containing crude extract, two-fold serial dilution
# Protocol: as §2, §1
# [5] = system: Acinetobacter baumannii DSM-30008; experiment: as above; type: cell-based; design: key: two-fold serial dilution from 1:15 (A) (concentration factor: 6.67×); low activity A B C D E F G H high activity; low activity A B C D E F G H high activity; low activity A B C D E F G H high activity; low activity A B C D E F G H high activity; low activity A B C D E F G H high activity; low activity A B C D E F G H high activity; to 1:3,840 (H) (concentration factor: 0.05×); conditions: derivative-containing crude extract, two-fold serial dilution
# Protocol: as §2, §1
# P. aeruginosa PA01 [6] = experiment: as above; type: cell-based, Pseudomonas aeruginosa; design: key: two-fold serial dilution from 1:15 (A) (concentration factor: 6.67×); low activity A B C D E F G H high activity; low activity A B C D E F G H high activity; low activity A B C D E F G H high activity; low activity A B C D E F G H high activity; low activity A B C D E F G H high activity; low activity A B C D E F G H high activity; to 1:3,840 (H) (concentration factor: 0.05×); conditions: derivative-containing crude extract, two-fold serial dilution
# Protocol: as §2, §1
compound,measurement,setting,value
C[C@@H](O)[C@@H]1NC(=O)[C@H]2NC(=O)[C@H](CC(N)=O)NC(=O)[C@@H](N)Cc3c[nH]c4c(cccc34)O[C@@H]2c2c[nH]c3cc(ccc23)[C@H](CCNC(=N)N)[C@@H](C(=O)N[C@@H](CCCNC(=N)N)C(=O)N[C@@H](Cc2c[nH]c3ccccc23)C(=O)O)NC1=O [D39],IC50 HepG2,HepG2,>37 µg/mL
same,MIC E. coli [ATCC25922],E. coli ATCC25922,4 to 8 µg/mL
same,MIC A. baumannii [DSM-30008],A. baumannii DSM-30008,0.5 to 2 µg/mL
same,Kd,[1],10.9 ± 3.5 µM
same,MIC K. pneumoniae [DSM-30104],K. pneumoniae DSM-30104,4 to 8 µg/mL
same,MIC P. aeruginosa [PA01],P. aeruginosa PA01 [2],2 µg/mL
C[C@@H](O)[C@@H]1NC(=O)[C@H]2NC(=O)[C@H](CC(=O)O)NC(=O)[C@@H](N)Cc3c[nH]c4c(cccc34)O[C@@H]2c2c[nH]c3cc(ccc23)[C@H](CCCN)[C@@H](C(=O)N[C@@H](CCCNC(=N)N)C(=O)N[C@@H](Cc2c[nH]c3ccccc23)C(=O)O)NC1=O [D60],IC50 HepG2,HepG2,> 37 µg/mL
same,MIC E. coli [ATCC25922],E. coli ATCC25922,16 µg/mL
same,MIC A. baumannii [DSM-30008],A. baumannii DSM-30008,2 µg/mL
same,MIC K. pneumoniae [DSM-30104],K. pneumoniae DSM-30104,16 µg/mL
same,MIC P. aeruginosa [PA01],P. aeruginosa PA01 [2],4 µg/mL
C[C@@H](O)[C@@H]1NC(=O)[C@H]2NC(=O)[C@H](CC(N)=O)NC(=O)[C@@H](N)Cc3c[nH]c4c(cccc34)O[C@@H]2c2c[nH]c3cc(ccc23)[C@H](CCCN)[C@@H](C(=O)N[C@@H](CCC(N)=O)C(=O)N[C@@H](Cc2c[nH]c3ccccc23)C(=O)O)NC1=O [D74],IC50 HepG2,HepG2,> 37 µg/mL
same,MIC E. coli [ATCC25922],E. coli ATCC25922,4 µg/mL
same,MIC A. baumannii [DSM-30008],A. baumannii DSM-30008,4 µg/mL
same,MIC K. pneumoniae [DSM-30104],K. pneumoniae DSM-30104,16 µg/mL
same,MIC P. aeruginosa [PA01],P. aeruginosa PA01 [2],2 µg/mL
"D59: novel darobactin derivative, core peptide WKWTKRW (not fully specified (bridges); also: darobactin bicyclic crosslinks)","antimicrobial activity of crude extract: highest dilution factor with full growth inhibition, K. pneumoniae DSM-30104",[3],A
same,"antimicrobial activity of crude extract: highest dilution factor with full growth inhibition, E. coli ATCC25922",[4],A
same,"antimicrobial activity of crude extract: highest dilution factor with full growth inhibition, A. baumannii DSM-30008",[5],A
same,"antimicrobial activity of crude extract: highest dilution factor with full growth inhibition, P. aeruginosa PA01",P. aeruginosa PA01 [6],A
"D62: novel darobactin derivative, core peptide WRWTKRW (not fully specified (bridges); also: darobactin bicyclic crosslinks)","antimicrobial activity of crude extract: highest dilution factor with full growth inhibition, K. pneumoniae DSM-30104",[3],B
same,"antimicrobial activity of crude extract: highest dilution factor with full growth inhibition, A. baumannii DSM-30008",[5],A
"D63: novel darobactin derivative, core peptide WVWTKRW (not fully specified (bridges); also: darobactin bicyclic crosslinks)","antimicrobial activity of crude extract: highest dilution factor with full growth inhibition, K. pneumoniae DSM-30104",[3],B
same,"antimicrobial activity of crude extract: highest dilution factor with full growth inhibition, A. baumannii DSM-30008",[5],C
same,"antimicrobial activity of crude extract: highest dilution factor with full growth inhibition, P. aeruginosa PA01",P. aeruginosa PA01 [6],A
"D65: novel darobactin derivative, core peptide WSWTKKW (not fully specified (bridges); also: darobactin bicyclic crosslinks)","antimicrobial activity of crude extract: highest dilution factor with full growth inhibition, K. pneumoniae DSM-30104",[3],A
same,"antimicrobial activity of crude extract: highest dilution factor with full growth inhibition, E. coli ATCC25922",[4],A
same,"antimicrobial activity of crude extract: highest dilution factor with full growth inhibition, A. baumannii DSM-30008",[5],D
same,"antimicrobial activity of crude extract: highest dilution factor with full growth inhibition, P. aeruginosa PA01",P. aeruginosa PA01 [6],B
"D66: novel darobactin derivative, core peptide WNWTKCW (not fully specified (bridges); also: darobactin bicyclic crosslinks)","antimicrobial activity of crude extract: highest dilution factor with full growth inhibition, K. pneumoniae DSM-30104",[3],A
same,"antimicrobial activity of crude extract: highest dilution factor with full growth inhibition, E. coli ATCC25922",[4],A
same,"antimicrobial activity of crude extract: highest dilution factor with full growth inhibition, A. baumannii DSM-30008",[5],C
same,"antimicrobial activity of crude extract: highest dilution factor with full growth inhibition, P. aeruginosa PA01",P. aeruginosa PA01 [6],B
"D67: novel darobactin derivative, core peptide WYWTKRW (not fully specified (bridges); also: darobactin bicyclic crosslinks)","antimicrobial activity of crude extract: highest dilution factor with full growth inhibition, K. pneumoniae DSM-30104",[3],C
same,"antimicrobial activity of crude extract: highest dilution factor with full growth inhibition, E. coli ATCC25922",[4],C
same,"antimicrobial activity of crude extract: highest dilution factor with full growth inhibition, A. baumannii DSM-30008",[5],E
same,"antimicrobial activity of crude extract: highest dilution factor with full growth inhibition, P. aeruginosa PA01",P. aeruginosa PA01 [6],D
"D68: novel darobactin derivative, core peptide WLWTKRW (not fully specified (bridges); also: darobactin bicyclic crosslinks)","antimicrobial activity of crude extract: highest dilution factor with full growth inhibition, K. pneumoniae DSM-30104",[3],B
same,"antimicrobial activity of crude extract: highest dilution factor with full growth inhibition, E. coli ATCC25922",[4],B
same,"antimicrobial activity of crude extract: highest dilution factor with full growth inhibition, A. baumannii DSM-30008",[5],D
same,"antimicrobial activity of crude extract: highest dilution factor with full growth inhibition, P. aeruginosa PA01",P. aeruginosa PA01 [6],B
"D70: novel darobactin derivative, core peptide WSWSKRW (also: darobactin bicyclic crosslinks)","antimicrobial activity of crude extract: highest dilution factor with full growth inhibition, K. pneumoniae DSM-30104",[3],C
same,"antimicrobial activity of crude extract: highest dilution factor with full growth inhibition, E. coli ATCC25922",[4],C
same,"antimicrobial activity of crude extract: highest dilution factor with full growth inhibition, A. baumannii DSM-30008",[5],E
same,"antimicrobial activity of crude extract: highest dilution factor with full growth inhibition, P. aeruginosa PA01",P. aeruginosa PA01 [6],D
"D71: novel darobactin derivative, core peptide WEWSKRW (also: darobactin bicyclic crosslinks)","antimicrobial activity of crude extract: highest dilution factor with full growth inhibition, K. pneumoniae DSM-30104",[3],C
same,"antimicrobial activity of crude extract: highest dilution factor with full growth inhibition, E. coli ATCC25922",[4],C
same,"antimicrobial activity of crude extract: highest dilution factor with full growth inhibition, A. baumannii DSM-30008",[5],E
same,"antimicrobial activity of crude extract: highest dilution factor with full growth inhibition, P. aeruginosa PA01",P. aeruginosa PA01 [6],B-C
"D72: novel darobactin derivative, core peptide WKWSKRW (also: darobactin bicyclic crosslinks)","antimicrobial activity of crude extract: highest dilution factor with full growth inhibition, K. pneumoniae DSM-30104",[3],B
same,"antimicrobial activity of crude extract: highest dilution factor with full growth inhibition, E. coli ATCC25922",[4],C
same,"antimicrobial activity of crude extract: highest dilution factor with full growth inhibition, A. baumannii DSM-30008",[5],C
same,"antimicrobial activity of crude extract: highest dilution factor with full growth inhibition, P. aeruginosa PA01",P. aeruginosa PA01 [6],B
"D73: novel darobactin derivative, core peptide WDWSKRW (also: darobactin bicyclic crosslinks)","antimicrobial activity of crude extract: highest dilution factor with full growth inhibition, K. pneumoniae DSM-30104",[3],A
same,"antimicrobial activity of crude extract: highest dilution factor with full growth inhibition, E. coli ATCC25922",[4],A
same,"antimicrobial activity of crude extract: highest dilution factor with full growth inhibition, A. baumannii DSM-30008",[5],C
same,"antimicrobial activity of crude extract: highest dilution factor with full growth inhibition, P. aeruginosa PA01",P. aeruginosa PA01 [6],B
